Laboratory results as given in patent US20260049078A1, “DIFLUORO- AND TRIFLUORO-ACETYL HYDRAZIDES AS SELECTIVE HDAC6 INHIBITORS” (ITALFARMACO S.P.A., priority 2022, published 2026).
pEC50: −log10 of the molar value. Where two headings read alike, the source gives them in different places.

What was measured:
[1] = test system: human B cell precursor leukemia 697; test: In vitro α-tubulin acetylation in 697 cell line; assay type: cell-based; settings: read-out: TubAc 697 cells EC50
Description: The in vitro α-tubulin acetylation was evaluated on human B cell precursor leukemia 697.
The 697 cells were maintained in RPMI Medium 1640 (Gibco, cat: 21875-034) supplemented with 10 mM HEPES (Gibco, cat: 15630-080), Pen-Strep (Penicillin 100 U/ml, Streptomycin 100 μg/ml, Gibco, cat: 15140-122) and 10% fetal bovine serum (Gibco, cat: 10270-106).
The cells were plated in 12-well plates (Costar, cat: 3512) at the density of 5.5×10^5 cells/ml.
Serial dilutions of test compounds in DMSO were prepared using 20 mM stock solutions to obtain 8 doses 200× concentrated in respect to final doses (2.7-100000 nM). Then the DMSO solutions were diluted 10× in culture medium to obtain 20× concentrated solutions which were used for cells treatment (125 μl of medium solutions were added to 2.375 ml of cells suspension). The final DMSO content was set as 0.5%. The plates were incubated at 37° C., 5% CO2 for 16 hours.
At the end of the incubation period, the cells were harvested and centrifuged for 5 minutes at 200×g and washed with 0.9% NaCl at 4° C. The resulting pellet was treated for 30 minutes at 4° C. with 100 μl Complete Lysis-M buffer containing protease inhibitors (Complete Lysis-M Roche+Complete Tablets, Mini Easypack, cat: 4719956001) and phosphatase inhibitor cocktails (PhosStop Easypack, Roche, cat: 4906837001) and then centrifuged 10 minutes at 18213×g. The protein concentration in each supernatant was determined using BCA Protein Assay Kit (Pierce, cat: 23227). The samples were diluted in PBS 1× to obtain 2 μg/ml concentration and coated in MaxiSorp 96-well plates (Nunc, cat: 442404). The plates were incubated overnight at room temperature.
Plates were washed twice with Wash Buffer (PBS 1×+0.005% tween 20) and saturated for 1 hour at room temperature with 300 μL of 1×PBS containing 10% FBS. After washing twice with Wash Buffer, the plates were incubated for 2 hours at room temperature in the presence of 100 μl/well either anti-acetylated-α-tubulin antibody (Monoclonal Anti-Tubulin, Acetylated antibody produced in mouse, Sigma-Aldrich, cat: T6793) or total anti-α-tubulin antibody (Monoclonal Anti-α-Tubulin produced in mouse, Sigma-Aldrich, cat: T6074) diluted 1:1000 in 1×PBS containing 10% FBS. Following 5 washing cycles with Wash Buffer the secondary antibody conjugated with the enzyme HRP (Goat anti-Mouse IgG, IgM, IgA (H+L), stock concentration 0.5 mg/ml, Thermo Fisher Scientific, cat: A10668), diluted 1:1000 in 1×PBS+10% FBS was added at the volume of 100 μl/well. After two hours of incubation at room temperature the plates were washed 4 times with Wash Buffer, then 100 μl/well of TMB substrate (TMB substrate kit, Thermo Fisher Scientific, cat: 34021) was added for 10 minutes at room temperature in the dark. The reaction was stopped by adding 50 μl of 2M H2SO4. The plates were read in BioTek Synergy H1 multimode microplate reader at a wavelength of 450 nm.
(§1) The measured absorbance was corrected by subtracting the mean of blank values (samples without the primary antibody). The absorbance ratios of acetyl to total tubulin assays were calculated and normalized to the reference compound (positive control) 4 parameter logistic curve, where 0% is the fitted bottom and 100% is the fitted top of the curve. The results are expressed as relative EC50.

[2] = test system: murine neuroblastoma N2a cell lines; test: In vitro α-tubulin acetylation in N2a cell line; assay type: cell-based; settings: N2a cells, 16 hours; dose of the tabulated value not stated (tested at 10 μM, 1 μM and 0.1 μM)
Description: The in vitro α-tubulin acetylation was evaluated on murine neuroblastoma N2a cell lines.
Cells were maintained in Eagle's Minimum Essential Medium (ATCC, cat: 30-2003) supplemented with 10% fetal bovine serum—FBS (Gibco, cat: 10270-106).
Cells were plated in 12-well plates (Costar, cat: 3512) at the density of 6×10^4 cells/cm^2, respectively. The test compounds were prepared as 20× concentrated medium solutions in respect to the final concentrations. The cells were treated the following day. The compounds were tested at 3 doses: 10 μM, 1 μM and 0.1 μM. The final DMSO content was set as 0.5%. The cells were incubated with the compounds at 37° C. for 16 hours.
At the end of the incubation period, the cells were harvested and centrifuged for 5 minutes at 200×g and washed with 0.9% NaCl at 4° C. The resulting pellet was treated for 30 minutes at 4° C. with 100 μl Complete Lysis-M buffer containing protease inhibitors (Complete Lysis-M Roche+Complete Tablets, Mini Easypack, cat: 4719956001) and phosphatase inhibitor cocktails (PhosStop Easypack, Roche, cat: 4906837001) and then centrifuged 10 minutes at 18213×g. The protein concentration in each supernatant was determined using BCA Protein Assay Kit (Pierce, cat: 23227). The samples were diluted in PBS 1× to obtain 2 μg/ml concentration and coated in MaxiSorp 96-well plates (Nunc, cat: 442404). The plates were incubated overnight at room temperature, then washed twice with Wash Buffer (PBS 1×+0.005% tween 20) and saturated for 1 hour at room temperature with 300 μL of 1×PBS containing 10% FBS. After washing twice with Wash Buffer, the plates were incubated for 2 hours at room temperature in the presence of 100 μl/well either anti-acetylated-α-tubulin antibody (Monoclonal Anti-Tubulin, Acetylated antibody produced in mouse, Sigma-Aldrich, cat: T6793) or total anti-α-tubulin antibody (Monoclonal Anti-α-Tubulin produced in mouse, Sigma-Aldrich, cat: T6074) diluted 1:1000 in 1×PBS containing 10% FBS. Following 5 washing cycles with Wash Buffer, the secondary antibody conjugated with the enzyme HRP (Goat anti-Mouse IgG, IgM, IgA (H+L), stock concentration 0.5 mg/ml, Thermo Fisher Scientific, cat: A10668), diluted 1:1000 in 1×PBS+10% FBS was added at the volume of 100 μl/well. After two hours of incubation at room temperature the plates were washed 4 times with Wash Buffer, then 100 μl/well of TMB substrate (TMB substrate kit, Thermo Fisher Scientific, cat: 34021) was added for 15 minutes at room temperature in the dark. The reaction was stopped by adding 50 μl of 2M H2SO4. The plates were read in BioTek Synergy H1 multimode microplate reader at a wavelength of 450 nm.
as §1, with “where” for “where 0% is the fitted bottom and”, “curve and 0% is DMSO control (protein extract obtained from non-treated cells).” for “curve.”, “fold increase compared to the control (DMSO).” for “relative EC50.”

## FC(F)c1nnc(-c2ccc(Cn3cc(-c4ccc(NC5=NCCN5)cc4)nn3)cc2)o1 [Compound 1-A]
[1]; Homo sapiens, B-cell, 16 h
  pEC50: 6.23

## Nc1nc2ccc(-c3cn(Cc4ccc(-c5nnc(C(F)F)o5)cc4F)nn3)cc2s1 [Compound 2-A]
[1]; Homo sapiens, B-cell, 16 h
  pEC50: 6.89

## FC(F)c1nnc(-c2ccc(Cn3cc(-c4ccccc4)nn3)nc2)o1 [Compound 13-A]
[1]; Homo sapiens, B-cell, 16 h
  pEC50: 6.30
[2]
  Tubulin acetylation Fold increase compared to control: 6 fold

## Fc1ccccc1-c1cn(Cc2ccc(-c3nnc(C(F)F)o3)cn2)nn1 [Compound 14-A]
[1]; Homo sapiens, B-cell, 16 h
  pEC50: 6.32
[2]
  Tubulin acetylation Fold increase compared to control: 7 fold

## FC(F)c1nnc(-c2ccc(Cn3cc(-c4ccccn4)nn3)nc2)o1 [Compound 20-A]
[1]; Homo sapiens, B-cell, 16 h
  pEC50: 5.92
[2]
  Tubulin acetylation Fold increase compared to control: 15 fold

## Nc1nc2ccc(-c3cn(Cc4ccc(-c5nnc(C(F)F)o5)cc4)nn3)cc2s1 [Compound 32-A]
[1]; Homo sapiens, B-cell, 16 h
  pEC50: 7.07
[2]
  Tubulin acetylation Fold increase compared to control: 20 fold

## Nc1nc2ccc(-c3cn(Cc4ccc(-c5nnc(C(F)F)o5)cc4Cl)nn3)cc2s1 [Compound 37-A]
[1]; Homo sapiens, B-cell, 16 h
  pEC50: 7.19
[2]
  Tubulin acetylation Fold increase compared to control: 31 fold

## Nc1nc2ccc(-c3cn(Cc4ccc(-c5nnc(C(F)F)o5)cn4)nn3)cc2s1 [Compound 38-A]
[1]; Homo sapiens, B-cell, 16 h
  pEC50: 7.12
[2]
  Tubulin acetylation Fold increase compared to control: 22 fold

## Nc1nc2ccc(C3CN(Cc4ccc(C(=O)NNC(=O)C(F)F)s4)N=N3)cc2s1 (stereo not shown) [Compound 48-A]
[1]; 697 cells, 16 hours, relative EC50
  pEC50: 8.12
[2]
  Tubulin acetylation Fold increase compared to control: 45 fold
